Data published in patent US7589122B2, “Method for soybean aphid population suppression and monitoring using aphid- and host-plant-associated semiochemical compositions” (MSTRS Technologies, Inc., priority 2004, dated 2009).

Experiments:
[1] = test system: antennae of winged soybean aphids, Aphis glycines; experiment: EAG responses of winged soybean aphids to soybean associated volatile compounds; settings: relative to the control (FIG. 3)
From the text: FIG. 3 is a graph of EAG responses of winged soybean aphids, Aphis glycines, to some soybean associated volatile compounds.
EAG responses of soybean aphids to soybean plant volatiles and their attractiveness in the field. […] All other compounds elicited EAG responses seemed not to be attractive to winged aphids relative to the control.

[2] = test system: syrphids; experiment: Field trapping of predatory insects with attractant compounds: syrphids; type: in vivo, Syrphidae (syrphids); settings: 100 mg bait, Iowa soybean field 2003 (FIG. 7)
Description: (§1) FIG. 7 is a graph of the mean number of predatory insects caught in traps baited with 100 mg of methyl salicylate and 2-phenylethanol, and the control from an Iowa soybean field in 2003.
(§2) Field Test. Field trapping tests were conducted in soybean field from 2002 to 2003 (Ames, Iowa). Synthetic compounds at a dose of 100 mg (for plant volatiles) and 10 mg for soybean aphid pheromones were prepared in either hexane or methylene chloride or ether. Medical peerless cotton rolls (5 cm long, 100% cotton) were used as dispensers for loading plant volatiles, and borosilicate glass vials (Chromal) were housed for pheromones. Two trap designs were used, and the first type is similar to that described in Zhu et al., (1999), and the second one is the most common trap used for aphid trapping, the water trap. The trap was hung from bamboo stakes, 1.2 m above the ground. Within a replicate (N=5-6), traps were set at least 10 m apart. The traps were checked daily, and trap position within a series was randomized to minimize the effects of habitat heterogeneity.

[3] = test system: winged soybean aphids; experiment: Field trapping of winged soybean aphids with selected soybean volatile compounds; type: in vivo, Aphis glycines; settings: traps baited with synthetic soybean volatile, 100 mg, soybean field (FIG. 4)
Description: FIG. 4 is a graph of the number of winged soybean aphids caught per trap baited with some selected soybean volatile compounds (synthetic) in the soybean field.
as §2

[4] = test system: soybean aphids on soybean plants; experiment: Caged greenhouse experiment: effect of methyl salicylate on soybean aphid colonizing and growth; type: in vivo, Aphis glycines
Description: The effect of Methyl salicylate on soybean aphid growth. This experiment was conducted in the green house, where cages of soybean plants treated with dispensers loaded 4 g of synthetic methyl salicylate. Newly emerged winged soybean aphids on one cut-soybean leaf (dried) were placed in the middle of the cage, which is 30 cm away from the potted soybean plants (V2 stage) with or without treatment of methyl salicylate. For plants treated with methyl salicylate, the cotton roll was placed in the center of the plant, and was replaced with a newly loaded one after one week. The number of winged aphids on each plant were counted 2 hours after introducing the winged aphids, and continued for a week. The number of wingless soybean aphids produced from those landed winged aphids was also counted everyday for about two weeks.

[5] = test system: Harmonia axyridis; experiment: Field trapping of predatory insects with attractant compounds: Harmonia axyridis; type: in vivo; settings: 100 mg bait, vs control (FIG. 7)
Description: as §1, §2

[6] = test system: Coccinella septempunctata; experiment: Field trapping of predatory insects with attractant compounds: Coccinella septempunctata; type: in vivo; settings: 100 mg bait, Iowa soybean field 2003 (FIG. 7)
Description: as §1
FIG. 8 is a graph of the mean number of Coccinella septempunctata caught in traps baited with different doses of methyl salicylate from an Iowa soybean field in 2004.
as §2

[7] = test system: male and gynoparous female soybean aphids; experiment: Field trapping of male and gynoparous soybean aphids with synthetic sex pheromone lures; type: in vivo, Aphis glycines; settings: synthetic pheromone lures 10 mg, soybean fields (FIG. 12)
Description: FIG. 16 is a graph of mean number of winged soybean aphids caught in water traps baited with different combinations of catnip oil and the two pheromone compounds (n=5, columns with no letters in common are significant different, ANOVA followed by FPLSD test, P<0.05)
as §2

[8] = test system: gynoparous female antennae of soybean aphids; experiment: EAG dose-response of gynoparous female soybean aphid antennae to synthetic pheromone compounds; parameters: species or system Aphis glycines; settings: when pheromone exceeded a 1 mg dosage (FIG. 11 lower)
From the text: FIG. 11 is two graphs of EAG dose-response curves from male (upper part) and gynoparous female antennae (lower part) of soybean aphids to synthetic pheromone candidate compounds (n=4; different letters within a series indicate significant differences, ANOVA followed by FPLSD test, P<0.05)
EAG dose-responses of male and gynoparous soybean aphids to the identified sex pheromone compounds.

## OCCc1ccccc1 [2-phenylethanol]
[1]
  EAG responses of winged soybean aphids: significantly stronger than the control
[2]
  attraction of syrphids to baited traps: strongest attraction

## CC(=O)CCC=C(C)C [6-methyl-5-hepten-2-one]
[1]
  EAG responses of winged soybean aphids: significantly stronger than the control

## CCC/C=C/C=O [(E)-2 hexenal]
[1]
  EAG responses of winged soybean aphids: highest response

## CC/C=C\CCO [(Z)-3 Hexenol]
[1]
  EAG responses of winged soybean aphids: significantly stronger than the control

## CC/C=C\CCOC(C)=O [(Z)-3 hexenyl acetate]
[1]
  EAG responses of winged soybean aphids: significantly stronger than the control

## O=Cc1ccccc1 [benzaldehyde]
[3]
  number of winged soybean aphids caught per trap: caught the most
[1]
  EAG responses of winged soybean aphids: significantly stronger than the control

## C=CC(C)(O)CCC=C(C)C (stereo not shown) [linalool]
[1]
  EAG responses of winged soybean aphids: significantly stronger than the control

## COC(=O)c1ccccc1O [methyl salicylate]
[4]; caged potted soybean plants treated vs untreated (FIG. 17 lower)
  growth of wingless soybean aphids on soybean leaves: suppress the growth
[4]; caged potted soybean plants treated vs untreated (FIG. 17 upper)
  soybean aphid colonizing on soybean plants (winged aphids found on potted plants): significantly reducing
[5]
  number of Harmonia axyridis caught in baited traps: not significantly differed from the control
[1]
  EAG responses of winged soybean aphids: significantly stronger than the control
[2]
  attraction of syrphids to baited traps: attracted to some syrphids
[6]
  attraction of adults of Coccinella septempunctata to baited traps: significantly attractive

## CC1=CO[C@@H](O)[C@H]2[C@@H]1CC[C@@H]2C [nepetalactol, (1R,4aS,7S,7aR)-nepetalactol]
[7]
  number of male and gynoparous soybean aphids caught in traps: Significantly lower catches

## CC1=COC(=O)[C@H]2[C@@H]1CC[C@@H]2C [nepetalactone, (4aS,7S,7aR)-nepetalactone]
[8]
  EAG response of gynoparous female antennae: higher EAG response
[7]
  number of male and gynoparous soybean aphids caught in traps: Significantly lower catches

## C=CC(C)=CCC=C(C)C [ocimene]
[1]
  EAG responses of winged soybean aphids: significantly stronger than the control
